{"source": "patent US20100160454A1", "about": "“ANTIMICROBIAL AGENTS, COMPOSITIONS AND PRODUCTS CONTAINING THE SAME, AND METHODS OF USING THE COMPOSITIONS AND PRODUCTS” (Eastman Chemical Company, priority 2008, published 2010)", "test_in_all_cases": "Microbiological challenge testing in BPW broth, graded subculture counts", "type_in_all_cases": "cell-based", "key": {"[1]": {"test_system": "Aeromonas sp. Wild type", "procedure,_shortened": "(§1)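 Serial 1:10 dilutions were made in pH 7.2 phosphate buffer and spread-plated onto PCA, and colonies were counted after 48 h or more at 35 °C. In the challenge, BPW–dextrose tubes containing the test material received inoculum at 10^5–10^6 CFU/mL at time zero. Controls without test material served as reference.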"}, "[2]": {"test_system": "Bacillus subtilis Wild type", "procedure,_shortened": "as §1"}, "[3]": {"test_system": "Escherichia coli ATCC 25922", "details": "E. Coli", "procedure,_shortened": "as §1"}, "[4]": {"test_system": "Pseudomonas aeruginosa Wild type", "details": "P. aeruginosa", "procedure,_shortened": "as §1"}, "[5]": {"test_system": "Staphylococcus epidermidis ATCC 12228", "procedure,_shortened": "as §1"}, "[6]": {"test_system": "Streptococcus mutans ATCC 35668", "procedure,_shortened": "as §1"}}}
{"smiles": "O=C([O-])CN(CCN(CC(=O)[O-])CC(=O)O)CC(=O)O.[Na+].[Na+]", "note": "[EDTA, Na2EDTA]", "values": [{"measurement": "Aeromonas sp growth grade, 3 day", "setting": "[1]; 0.5% weight/volume", "value": "5 (More than 10,000 colonies estimated (thus more than 100,000 CFU/mL))"}, {"measurement": "Aeromonas sp growth grade, 14 day", "setting": "[1]; 0.5% weight/volume", "value": "4 (1000 to 10,000 colonies countable (thus 10,000 CFU/mL to 100,000 CFU/mL))"}, {"measurement": "Aeromonas sp growth grade, 30 day", "setting": "[1]; 0.5% weight/volume", "value": "4 (1000 to 10,000 colonies countable (thus 10,000 CFU/mL to 100,000 CFU/mL))"}, {"measurement": "Aeromonas sp growth grade, 3 day", "setting": "[1]; 1.25% weight/volume", "value": "4 (1000 to 10,000 colonies countable (thus 10,000 CFU/mL to 100,000 CFU/mL))"}, {"measurement": "Aeromonas sp growth grade, 14 day", "setting": "[1]; 1.25% weight/volume", "value": "4 (1000 to 10,000 colonies countable (thus 10,000 CFU/mL to 100,000 CFU/mL))"}, {"measurement": "Aeromonas sp growth grade, 30 day", "setting": "[1]; 1.25% weight/volume", "value": "4 (1000 to 10,000 colonies countable (thus 10,000 CFU/mL to 100,000 CFU/mL))"}, {"measurement": "Aeromonas sp growth grade, 3 day", "setting": "[1]; 2.5% weight/volume", "value": "3 (100 to 1000 colonies (thus 1000 to 10,000 CFU/mL))"}, {"measurement": "Aeromonas sp growth grade, 14 day", "setting": "[1]; 2.5% weight/volume", "value": "2 (52 to 100 colonies counted (thus 520 to 1000 CFU/mL))"}, {"measurement": "Aeromonas sp growth grade, 30 day", "setting": "[1]; 2.5% weight/volume", "value": "1 (0 to 51 colonies counted (thus 10 to 510 CFU/mL based on 0.1-mL sample))"}, {"measurement": "Aeromonas sp growth grade, 3 day", "setting": "[1]; 5.0% weight/volume", "value": "1 (0 to 51 colonies counted (thus 10 to 510 CFU/mL based on 0.1-mL sample))"}, {"measurement": "Aeromonas sp growth grade, 14 day", "setting": "[1]; 5.0% weight/volume", "value": 0}, {"measurement": "Aeromonas sp growth grade, 30 day", "setting": "[1]; 5.0% weight/volume", "value": 0}, {"measurement": "B. subtillis growth grade, 3 day", "setting": "[2]; 0.5% weight/volume", "value": "4 (1000 to 10,000 colonies countable (thus 10,000 CFU/mL to 100,000 CFU/mL))"}, {"measurement": "B. subtillis growth grade, 14 day", "setting": "[2]; 0.5% weight/volume", "value": "4 (1000 to 10,000 colonies countable (thus 10,000 CFU/mL to 100,000 CFU/mL))"}, {"measurement": "B. subtillis growth grade, 30 day", "setting": "[2]; 0.5% weight/volume", "value": "4 (1000 to 10,000 colonies countable (thus 10,000 CFU/mL to 100,000 CFU/mL))"}, {"measurement": "B. subtillis growth grade, 3 day", "setting": "[2]; 1.25% weight/volume", "value": "2 (52 to 100 colonies counted (thus 520 to 1000 CFU/mL))"}, {"measurement": "B. subtillis growth grade, 14 day", "setting": "[2]; 1.25% weight/volume", "value": "2 (52 to 100 colonies counted (thus 520 to 1000 CFU/mL))"}, {"measurement": "B. subtillis growth grade, 30 day", "setting": "[2]; 1.25% weight/volume", "value": "2 (52 to 100 colonies counted (thus 520 to 1000 CFU/mL))"}, {"measurement": "B. subtillis growth grade, 3 day", "setting": "[2]; 2.5% weight/volume", "value": 0}, {"measurement": "B. subtillis growth grade, 14 day", "setting": "[2]; 2.5% weight/volume", "value": 0}, {"measurement": "B. subtillis growth grade, 30 day", "setting": "[2]; 2.5% weight/volume", "value": 0}, {"measurement": "B. subtillis growth grade, 3 day", "setting": "[2]; 5.0% weight/volume", "value": 0}, {"measurement": "B. subtillis growth grade, 14 day", "setting": "[2]; 5.0% weight/volume", "value": 0}, {"measurement": "B. subtillis growth grade, 30 day", "setting": "[2]; 5.0% weight/volume", "value": 0}, {"measurement": "Grade", "setting": "[3]; 0.5% (wt/vol), 3 day", "value": "5 (More than 10,000 colonies estimated (thus more than 100,000 CFU/mL))"}, {"measurement": "Grade", "setting": "[3]; 0.5% (wt/vol), 14 day", "value": "5 (More than 10,000 colonies estimated (thus more than 100,000 CFU/mL))"}, {"measurement": "Grade", "setting": "[3]; 0.5% (wt/vol), 30 day", "value": "5 (More than 10,000 colonies estimated (thus more than 100,000 CFU/mL))"}, {"measurement": "Grade", "setting": "[3]; 1.25% (wt/vol), 3 day", "value": "4 (1000 to 10,000 colonies countable (thus 10,000 CFU/mL to 100,000 CFU/mL))"}, {"measurement": "Grade", "setting": "[3]; 1.25% (wt/vol), 14 day", "value": "4 (1000 to 10,000 colonies countable (thus 10,000 CFU/mL to 100,000 CFU/mL))"}, {"measurement": "Grade", "setting": "[3]; 1.25% (wt/vol), 30 day", "value": "4 (1000 to 10,000 colonies countable (thus 10,000 CFU/mL to 100,000 CFU/mL))"}, {"measurement": "Grade", "setting": "[3]; 2.5% (wt/vol), 3 day", "value": 0}, {"measurement": "Grade", "setting": "[3]; 2.5% (wt/vol), 14 day", "value": 0}, {"measurement": "Grade", "setting": "[3]; 2.5% (wt/vol), 30 day", "value": 0}, {"measurement": "Grade", "setting": "[3]; 5.0% (wt/vol), 3 day", "value": 0}, {"measurement": "Grade", "setting": "[3]; 5.0% (wt/vol), 14 day", "value": 0}, {"measurement": "Grade", "setting": "[3]; 5.0% (wt/vol), 30 day", "value": 0}, {"measurement": "Grade", "setting": "[4]; 0.5% (wt/vol), 3 day", "value": "4 (1000 to 10,000 colonies countable (thus 10,000 CFU/mL to 100,000 CFU/mL))"}, {"measurement": "Grade", "setting": "[4]; 0.5% (wt/vol), 13 day", "value": "4 (1000 to 10,000 colonies countable (thus 10,000 CFU/mL to 100,000 CFU/mL))"}, {"measurement": "Grade", "setting": "[4]; 0.5% (wt/vol), 30 day", "value": "4 (1000 to 10,000 colonies countable (thus 10,000 CFU/mL to 100,000 CFU/mL))"}, {"measurement": "Grade", "setting": "[4]; 1.25% (wt/vol), 3 day", "value": "4 (1000 to 10,000 colonies countable (thus 10,000 CFU/mL to 100,000 CFU/mL))"}, {"measurement": "Grade", "setting": "[4]; 1.25% (wt/vol), 13 day", "value": "4 (1000 to 10,000 colonies countable (thus 10,000 CFU/mL to 100,000 CFU/mL))"}, {"measurement": "Grade", "setting": "[4]; 1.25% (wt/vol), 30 day", "value": "4 (1000 to 10,000 colonies countable (thus 10,000 CFU/mL to 100,000 CFU/mL))"}, {"measurement": "Grade", "setting": "[4]; 2.5% (wt/vol), 3 day", "value": "4 (1000 to 10,000 colonies countable (thus 10,000 CFU/mL to 100,000 CFU/mL))"}, {"measurement": "Grade", "setting": "[4]; 2.5% (wt/vol), 13 day", "value": "3 (100 to 1000 colonies (thus 1000 to 10,000 CFU/mL))"}, {"measurement": "Grade", "setting": "[4]; 2.5% (wt/vol), 30 day", "value": "4 (1000 to 10,000 colonies countable (thus 10,000 CFU/mL to 100,000 CFU/mL))"}, {"measurement": "Grade", "setting": "[4]; 5.0% (wt/vol), 3 day", "value": 0}, {"measurement": "Grade", "setting": "[4]; 5.0% (wt/vol), 13 day", "value": 0}, {"measurement": "Grade", "setting": "[4]; 5.0% (wt/vol), 30 day", "value": 0}, {"measurement": "S. epidermidis growth grade, 3 day", "setting": "[5]; 0.5% weight/volume", "value": "4 (1000 to 10,000 colonies countable (thus 10,000 CFU/mL to 100,000 CFU/mL))"}, {"measurement": "S. epidermidis growth grade, 13 day", "setting": "[5]; 0.5% weight/volume", "value": "3 (100 to 1000 colonies (thus 1000 to 10,000 CFU/mL))"}, {"measurement": "S. epidermidis growth grade, 30 day", "setting": "[5]; 0.5% weight/volume", "value": "4 (1000 to 10,000 colonies countable (thus 10,000 CFU/mL to 100,000 CFU/mL))"}, {"measurement": "S. epidermidis growth grade, 3 day", "setting": "[5]; 1.25% weight/volume", "value": "2 (52 to 100 colonies counted (thus 520 to 1000 CFU/mL))"}, {"measurement": "S. epidermidis growth grade, 13 day", "setting": "[5]; 1.25% weight/volume", "value": "1 (0 to 51 colonies counted (thus 10 to 510 CFU/mL based on 0.1-mL sample))"}, {"measurement": "S. epidermidis growth grade, 30 day", "setting": "[5]; 1.25% weight/volume", "value": 0}, {"measurement": "S. epidermidis growth grade, 3 day", "setting": "[5]; 2.5% weight/volume", "value": 0}, {"measurement": "S. epidermidis growth grade, 13 day", "setting": "[5]; 2.5% weight/volume", "value": 0}, {"measurement": "S. epidermidis growth grade, 30 day", "setting": "[5]; 2.5% weight/volume", "value": 0}, {"measurement": "S. epidermidis growth grade, 3 day", "setting": "[5]; 5.0% weight/volume", "value": 0}, {"measurement": "S. epidermidis growth grade, 13 day", "setting": "[5]; 5.0% weight/volume", "value": 0}, {"measurement": "S. epidermidis growth grade, 30 day", "setting": "[5]; 5.0% weight/volume", "value": 0}, {"measurement": "S. mutans growth grade, 3 day", "setting": "[6]; 0.5% weight/volume", "value": "4 (1000 to 10,000 colonies countable (thus 10,000 CFU/mL to 100,000 CFU/mL))"}, {"measurement": "S. mutans growth grade, 13 day", "setting": "[6]; 0.5% weight/volume", "value": "4 (1000 to 10,000 colonies countable (thus 10,000 CFU/mL to 100,000 CFU/mL))"}, {"measurement": "S. mutans growth grade, 30 day", "setting": "[6]; 0.5% weight/volume", "value": "4 (1000 to 10,000 colonies countable (thus 10,000 CFU/mL to 100,000 CFU/mL))"}, {"measurement": "S. mutans growth grade, 3 day", "setting": "[6]; 1.25% weight/volume", "value": "2 (52 to 100 colonies counted (thus 520 to 1000 CFU/mL))"}, {"measurement": "S. mutans growth grade, 13 day", "setting": "[6]; 1.25% weight/volume", "value": "2 (52 to 100 colonies counted (thus 520 to 1000 CFU/mL))"}, {"measurement": "S. mutans growth grade, 30 day", "setting": "[6]; 1.25% weight/volume", "value": "2 (52 to 100 colonies counted (thus 520 to 1000 CFU/mL))"}, {"measurement": "S. mutans growth grade, 3 day", "setting": "[6]; 2.5% weight/volume", "value": 0}, {"measurement": "S. mutans growth grade, 13 day", "setting": "[6]; 2.5% weight/volume", "value": 0}, {"measurement": "S. mutans growth grade, 30 day", "setting": "[6]; 2.5% weight/volume", "value": 0}, {"measurement": "S. mutans growth grade, 3 day", "setting": "[6]; 5.0% weight/volume", "value": 0}, {"measurement": "S. mutans growth grade, 13 day", "setting": "[6]; 5.0% weight/volume", "value": 0}, {"measurement": "S. mutans growth grade, 30 day", "setting": "[6]; 5.0% weight/volume", "value": 0}]}
